Source: patent US20240083981A1, “TREATMENT OF HERPES SIMPLEX VIRUS INFECTION” (priority 2022, published 2024)

Key:
[1] = tested on: HSV-1 RE TKnull; assay: microbe, parasite or virus in culture; conditions: Human alphaherpesvirus 1, Vero, 24 h
[2] = tested on: HSV-2 333 TKnull; assay: microbe, parasite or virus in culture; conditions: Human alphaherpesvirus 2, Vero, 24 h
[3] = tested on: clinical HSV-1 isolates; assay: Inhibition of clinically derived HSV-1 isolates in Vero cells, cell viability assay; format: cell-based; conditions: US origin
Procedure: Four American isolates (HSV-1 Bethesda and HSV-1 RH; HSV-2 Bethesda and HSV-2 RH), 3 Asian isolates (HSV-2 JA-1, HSV-2 JA-2, and HSV-2 JA-3), and 4 isolates with ACV resistance (poly-mut, C7, C8, and IC) were investigated via a cell viability assay. […] Then, the mixtures were aliquoted into a 96-well plate seeded with Vero cells. After incubation for 48 hours at 37° C., the plate was washed with PBS once, and the viable cells were incubated with 1% Alamar blue for 1 hour.

[4] = Human alphaherpesvirus 1, Vero, HSV-1 RH

Nc1nc2c(ncn2COCCO)c(=O)[nH]1 [ACV, acyclovir]
IC50 [1]: > 0.1 µM
IC50 [2]: > 0.1 µM
IC90 ([3]; HSV-1 Bethesda): > 35.5 µM
IC50 ([3]; Human alphaherpesvirus 1, Vero, HSV-1 Bethesda): 3.62 µM
IC50 [3, 4]: 4.73 µM
IC90 [3, 4]: > 35.5 µM
